In publication PMC8040252, “1,2,4-Oxadiazole-Bearing Pyrazoles as Metabolically Stable Modulators of Store-Operated Calcium Entry” (ACS Medicinal Chemistry Letters, 2021):
Marks after values point to notes of the source that are not given here.

Columns and labels:
[1] = In vitro hepatic metabolic stability in MLS9 fraction with NADPH; format: in vitro ADME, mouse; conditions: after 1 h of incubation
Procedure: The five selected inhibitors (22, 27, 29, 32, and 42) and the identified SOCE enhancer (37) were then evaluated for their in vitro hepatic metabolic stability. To this aim, the candidates were incubated in MLS9 fraction supplied with NADPH and the residual substrate was measured after 1 h. Under these conditions, the oxadiazole-bearing pyrazoles resulted overall metabolically stable, with only two compounds affording a residual substrate lower than 80% and the remaining molecules higher than 90% after incubation (Table 1 and Supporting Information). In contrast, Pyr3 and CIC-37, which suffered from hydrolysis of the ester function, provided a residual substrate of 43 and 74%, respectively (Table 1).[35] Similarly, the residual substrate of Synta66 in MLM is of 15%, due to an important hydrolysis of the amide group, absent in our class (Table 1).[39]
In vitro metabolism and purity of lead compounds
In vitro metabolism studies
Mouse liver S9 (MLS9) (pooled male mouse CD-1, protein concentration: 20 mg/mL) were purchased from Corning B.V. Life Sciences (Amsterdam, The Netherlands) and used throughout this study. The standard incubation mixture (250 μL final volume) was carried out in a 50 mM TRIS (tris[hydroxymethyl]-aminomethane) + 150 mM KCl buffer (pH 7.4) containing 3.3 mM MgCl2, 1.3 mM β-NADP-Na 2, 3.3 mM glucose 6-phosphate, 0.4 Units/mL glucose 6-phosphate dehydrogenase (NADPH regenerating system), 5 μL of acetonitrile ([…]), and the substrate compounds at a concentration of 50 µM. After pre-equilibration of the mixture, an appropriate volume of MLS9 suspension was added to give a final protein concentration of 1.5 mg/mL. The mixture was shaken for 60 min at 37 °C. Each incubation was stopped by addition of 250 μL of ice-cold acetonitrile, vortexed, and centrifuged at 13000 rpm for 10 min. Control incubations were carried out without the presence of MLS9 suspension or cofactors or in absence of the substrate.
LC-UV method for purity and metabolic stability data determination: a Shimadzu HPLC system (Shimadzu, Kyoto, Japan), consisting of two LC-10AD Vp module pumps, an SLC-10A Vp system controller, an SIL-10AD Vp autosampler, and a DGU-14-A on-line degasser were used for the analysis. The SPD-M10Avp photodiode array detector was used to detect the analytes. LC-Solution 1.24 software was used to process the chromatograms.
• Column: Phenomenex Kinetex XB C18, 150 × 4.6 mm (5 µm d.p.) protected with a SecurityGuard® (Torrance, CA, USA).
A: 0.2% formic acid in water;
B: 0.2% formic acid in acetonitrile.

[2] = system: Store-operated calcium entry (SOCE); assay: SOCE in HEK cells, tBhQ store depletion and Ca2+ re-addition, Fura-2 calcium imaging; format: cell-based, human; conditions: Homo sapiens; for activity at 10 µM: HEK293, compound 10 μM, tBhQ 50 μM, vs control, mean ± SEM of three experiments, read-out: % SOCE residual activity (10 μM); for IC50: HEK293, mean ± SEM
Procedure: With this approach, 24 oxadiazole-bearing pyrazoles were synthesized and tested in human embryonic kidney (HEK) cells for SOCE inhibition. […] After 600 s, Ca^2+ was added and intracellular levels were measured in fluorescence microscopy with the calcium dye Fura-2. […] For these compounds, the cell viability was therefore evaluated. An MTT assay was performed and the compounds that affected cell viability by more than 25% at 10 μM were discarded (23, 31, and 33). […] According to both activity and cytotoxicity, for the selected five compounds, the representative traces are depicted in Figure 3.
Human embryonic kidney (Hek) cells were obtained from ATCC (Rockville, MD, USA) and were cultured in Dulbecco’s Modified Eagle’s Medium (DMEM; Sigma-Aldrich, Italy), supplemented with 10% heat-inactivated FBS (Gibco, Italy), L-glutamine […] (Sigma-Aldrich, Italy), 10 U/mL penicillin, and […] streptomycin (Sigma-Aldrich, Italy) at 37 °C, under a 5% CO2 humidified atmosphere. […]
(KRB, 135 mM NaCl, 5 mM KCl, 0.4 mM KH2PO4, 1 mM MgSO4, 5.5 mM glucose, 20mM HEPES, pH 7.4) containing 2 mM CaCl2 (30 min, room temperature). After which, cells were washed and incubated with KRB for other 30 min to allow de-esterification of […]. To measure SOCE, cells were depleted of calcium in the endoplasmic reticulum with 2,5-t-butylhydroquinone (tBhQ, 50 […]
For calcium imaging experiments, Hek cells were plated onto pre-treated poli-L-lysine (P4832, Sigma-Aldrich, Italy) glass coverslips of 24 mm in 6-well plates Cells were loaded with 5 µM of Fura-2 AM, 0.02% of Pluronic-127 (Life technologies, Italy) and 10 µM of sulfinpyrazone (Sigma-Aldrich, Italy) in KRB containing 2 mM CaCl2 for 30 min at RT. Cells were then washed once with KRB for 15 min for de-esterification of Fura-2 AM.
Coverslips were mounted into the acquisition chamber and placed on the stage of a Leica DMI6000 epifluorescent microscope equipped with S Fluor ×40/1.3 objective. Fura-2 AM was excited by alternate 340 and 380 nm using a Polychrome IV monochromator (Till Photonics, Germany), and the probe emission light was filtered through 520/20 bandpass filter and collected by a cooled CCD camera (Hamamatsu, Japan). The fluorescence signals were acquired and processed using MetaFluor software (Molecular Device, Sunnyvale, CA, USA). To quantify the differences in the amplitudes of Ca2+ transients, the ratio values were normalized using the formula ΔF/F0. […]
In calcium imaging experiments, data are presented as Mean +/- standard error (SEM) or Median and interquartile range (IQR). The normality of data distributions was assessed using the Shapiro−Wilk test. Nonparametric (Mann−Whitney U test and one-way) statistical analysis was used for comparisons of data. All statistical assessments were two-sided and a value of P <0.05 was considered statistically significant. Statistical analyses were performed using GraphPad Prism software (GraphPad Software, Inc., USA).

[3] = MTT cell viability assay in HEK cells; format: cell-based, human; conditions: human; for viability at 24 h, 10 µM: mean ± SEM; for cytotoxicity at 24 h, 10 µM: compounds discarded, read-out: cell viability affected by
Procedure: (§1) With this approach, 24 oxadiazole-bearing pyrazoles were synthesized and tested in human embryonic kidney (HEK) cells for SOCE inhibition. To this aim, intracellular Ca^2+ stores of HEK cells were emptied with t-butylhydroquinone (tBhQ, 50 μM) in the presence of the compounds at 10 μM concentration. After 600 s, Ca^2+ was added and intracellular levels were measured in fluorescence microscopy with the calcium dye Fura-2. […] For these compounds, the cell viability was therefore evaluated. An MTT assay was performed and the compounds that affected cell viability by more than 25% at 10 μM were discarded (23, 31, and 33). […] According to both activity and cytotoxicity, for the selected five compounds, the representative traces are depicted in Figure 3. […]
(§2) 3-(4,5-Dimethylthiazol-2-yl)-2,5-diphenyltetrazolium bromide (MTT) assay Hek cells were plated in 24-wells plate at 20.000 cells per well. After 24 h, cells were treated for other 24 h with the selected compounds. At the end of treatments, medium was removed and substituted by 300 µL of MTT reagent at the final concentration of 0.25 mg/mL for 60 min at 37 °C. Reactions were then stopped and the crystals were solubilized by adding isopropyl alcohol/HCl (1:1; vol:vol) (Sigma-Aldrich Inc., Italy), before reading the absorbance at 570 nm, using the multi-plate reader Victor 3V (PerkinElmer, Milan, Italy). […]
(§3) All statistical assessments were two-sided and a value of P <0.05 was considered statistically significant. Statistical analyses were performed using GraphPad Prism software (GraphPad Software, Inc., USA).

HEK cells = assay: MTT cell viability assay in HEK cells; format: cell-based, human; conditions: 10 μM
Procedure: as §1, §2, §3

Row | Structure (SMILES) | activity at 10 µM [2] | IC50 [2] | viability at 24 h, 10 µM [3] | further results
1 | Cc1noc(-c2cnn(-c3ccc(NC(=O)c4c(C)noc4C)cc3)c2C(F)(F)F)n1 [compound 32] | 33.2 ± 1.9% | 9.6 ± 2.5 µM | 77.7 ± 4.4% | MLS9 stability (residual substrate) [1]: 99% ^b; cytotoxicity (HEK cells): not cytotoxic
2 | Cc1noc(-c2cnn(-c3ccc(NC(=O)COc4ccccc4)cc3)c2C(F)(F)F)n1 [compound 41] | 63.6 ± 3.9% | – | – | –
3 | Cc1noc(-c2cnn(-c3ccc(NC(=O)c4snnc4C)cc3)c2C(F)(F)F)n1 [compound 33] | 46.5 ± 2.8% | – | 59.1 ± 6.3% | cytotoxicity at 24 h, 10 µM [3]: > 25%
4 | Cc1noc(-c2cnn(-c3ccc(NC(=O)c4c(C)cccc4F)cc3)c2C(F)(F)F)n1 [compound 21] | 56.7 ± 1.3% | – | – | –
5 | Cc1noc(-c2cnn(-c3ccc(NC(=O)Cc4ccc([N+](=O)[O-])cc4)cc3)c2C(F)(F)F)n1 [compound 28] | 108 ± 3.9% | – | – | –
6 | CCCC(C)OC(=O)c1cnn(-c2ccc(-n3cc(-c4cccc(C(=O)O)c4)nn3)cc2)c1C(F)(F)F (centres unmarked) [CIC-37, reference compound] | 17.5 ± 1.6% | 4.4 ± 1.2 µM | 93.6 ± 4.6% | –
7 | CCOC(=O)c1cnn(-c2ccc(NC(=O)C(Cl)=C(Cl)Cl)cc2)c1C(F)(F)F [Pyr3, reference compound] | 8.9 ± 0.6% | 0.5 ± 0.1 µM | 28.6 ± 0.5% | –
8 | Cc1noc(-c2cnn(-c3ccc(NC(=O)c4cccc(C(=O)O)c4)cc3)c2C(F)(F)F)n1 [compound 19] | 77.2 ± 3.7% | – | – | –
9 | Cc1noc(-c2cnn(-c3ccc(NC(=O)c4ccncc4F)cc3)c2C(F)(F)F)n1 [compound 20] | 53.6 ± 0.9% | – | – | –
10 | Cc1noc(-c2cnn(-c3ccc(NC(=O)c4ccc(Cl)cc4)cc3)c2C(F)(F)F)n1 [compound 23] | 40.8 ± 3.6% | – | 72.9 ± 11.7% | cytotoxicity at 24 h, 10 µM [3]: > 25%
11 | Cc1ccc(S(=O)(=O)Nc2ccc(-n3ncc(-c4nc(C)no4)c3C(F)(F)F)cc2)cc1 [compound 42] | 47.6 ± 4.2% | 9.5 ± 1.7 µM | 79.4 ± 4.2% | MLS9 stability (residual substrate) [1]: 76% ^b; melting point: 149 to 150 °C; cytotoxicity (HEK cells): not cytotoxic
12 | COc1ccccc1NS(=O)(=O)c1cc(C(=O)Nc2ccc(-n3ncc(-c4nc(C)no4)c3C(F)(F)F)cc2)ccc1C [compound 36] | 59.9 ± 4.2% | – | – | –
13 | Cc1noc(-c2cnn(-c3ccc(NC(=O)c4ccc(C(O)(C(F)(F)F)C(F)(F)F)cc4)cc3)c2C(F)(F)F)n1 [compound 26] | 109 ± 6.5% | – | – | –
14 | Cc1noc(-c2cnn(-c3ccc(NC(=O)c4ccc(C(F)(F)F)cc4)cc3)c2C(F)(F)F)n1 [compound 25] | 110 ± 5.9% | – | – | –
15 | Cc1noc(-c2cnn(-c3ccc(NC(=O)C4CCS(=O)(=O)CC4)cc3)c2C(F)(F)F)n1 [compound 40] | 87.5 ± 3.8% | – | – | –
16 | CCCCCCCCCCCC(=O)Nc1ccc(-n2ncc(-c3nc(C)no3)c2C(F)(F)F)cc1 [compound 38] | 53.8 ± 4.4% | – | – | –
17 | Cc1noc(-c2cnn(-c3ccc(NC(=O)Cc4ccc(Cl)cc4)cc3)c2C(F)(F)F)n1 [compound 24] | 121 ± 2.2% | – | – | –
18 | Cc1noc(-c2cnn(-c3ccc(NC(=O)c4cc(Br)c[nH]4)cc3)c2C(F)(F)F)n1 [compound 35] | 69.8 ± 2.9% | – | – | melting point: 205 to 206 °C
19 | COc1ccc(OC)c(-c2ccc(NC(=O)c3ccncc3F)cc2)c1 [Synta66, reference compound] | 9.2 ± 1.7% | 0.2 ± 0.3 µM | 75.8 ± 8% | –
20 | Cc1noc(-c2cnn(-c3ccc(NC(=O)c4ccc(C#N)c(F)c4)cc3)c2C(F)(F)F)n1 [compound 29] | 49.6 ± 6.5% | 9.7 ± 2.3 µM | 101 ± 6.7% | MLS9 stability (residual substrate) [1]: 73% ^b; cytotoxicity (HEK cells): not cytotoxic
21 | Cc1noc(-c2cnn(-c3ccc(NC(=O)c4ccc5nc[nH]c5c4)cc3)c2C(F)(F)F)n1 [compound 31] | 47.4 ± 1% | – | 56.5 ± 2.5% | cytotoxicity at 24 h, 10 µM [3]: > 25%
22 | Cc1noc(-c2cnn(-c3ccc(NC(=O)c4ccc([N+](=O)[O-])cc4)cc3)c2C(F)(F)F)n1 [compound 27] | 40.8 ± 6.9% | 5.5 ± 0.8 µM | 80.2 ± 7.4% | MLS9 stability (residual substrate) [1]: >99% ^b; cytotoxicity (HEK cells): not cytotoxic
23 | Cc1noc(-c2cnn(-c3ccc(NC(=O)CCN4CCOCC4)cc3)c2C(F)(F)F)n1 [compound 39] | 95.9 ± 6.2% | – | – | –
24 | Cc1noc(-c2cnn(-c3ccc(NC(=O)c4ccccc4I)cc3)c2C(F)(F)F)n1 [compound 30] | 53.2 ± 3.9% | – | – | –
25 | Cc1noc(-c2cnn(-c3ccc(NC(=O)c4c(F)cccc4F)cc3)c2C(F)(F)F)n1 [compound 22] | 38.6 ± 4.3% | 3.1 ± 1.4 µM | 95.6 ± 8.5% | MLS9 stability (residual substrate) [1]: >99% ^b; cytotoxicity (HEK cells): not cytotoxic
